This is an account of results in US5492839A (priority 1994, dated 1996).

Assay [1] deals with anti-ryanodine antibodies. In words: Competitive radioimmunoassay: inhibition of [3H]ryanodine-antibody binding (dextran-coated charcoal assay). Also noted: species or system rabbit. To be noted: for binds times less tightly than ryanodine (antibody): relative to ryanodine. As for the experimental part: Binding was performed in triplicate in 1.5 ml polypropylene tubes. […] Following the addition of serial dilutions of antibody, the tubes were shaken and incubated for 1 h at room temperature. The tubes were placed on ice for 10 min and then 0.2 ml of stirred, ice-cold dextran-coated charcoal (0.0625% Dextran T-70, 0.625% Norit A charcoal in TSG) was added to each tube. The tubes were shaken and incubated for an additional 10 min on ice. […] Controls without antiserum were included to determine the amount of radiolabel that could not be precipitated by the charcoal.
Ryanodine derivatives were prepared by serial dilution in TSG.

Assay [2] deals with T1, skeletal muscle ryanodine receptor (Oryctolagus cuniculus, UniProt P11716).
T1 construct: Rabbit skeletal muscle triads were prepared as previously described; from tissue; host or cells: rabbit skeletal muscle triads
T1 sequence (P11716 whole entry): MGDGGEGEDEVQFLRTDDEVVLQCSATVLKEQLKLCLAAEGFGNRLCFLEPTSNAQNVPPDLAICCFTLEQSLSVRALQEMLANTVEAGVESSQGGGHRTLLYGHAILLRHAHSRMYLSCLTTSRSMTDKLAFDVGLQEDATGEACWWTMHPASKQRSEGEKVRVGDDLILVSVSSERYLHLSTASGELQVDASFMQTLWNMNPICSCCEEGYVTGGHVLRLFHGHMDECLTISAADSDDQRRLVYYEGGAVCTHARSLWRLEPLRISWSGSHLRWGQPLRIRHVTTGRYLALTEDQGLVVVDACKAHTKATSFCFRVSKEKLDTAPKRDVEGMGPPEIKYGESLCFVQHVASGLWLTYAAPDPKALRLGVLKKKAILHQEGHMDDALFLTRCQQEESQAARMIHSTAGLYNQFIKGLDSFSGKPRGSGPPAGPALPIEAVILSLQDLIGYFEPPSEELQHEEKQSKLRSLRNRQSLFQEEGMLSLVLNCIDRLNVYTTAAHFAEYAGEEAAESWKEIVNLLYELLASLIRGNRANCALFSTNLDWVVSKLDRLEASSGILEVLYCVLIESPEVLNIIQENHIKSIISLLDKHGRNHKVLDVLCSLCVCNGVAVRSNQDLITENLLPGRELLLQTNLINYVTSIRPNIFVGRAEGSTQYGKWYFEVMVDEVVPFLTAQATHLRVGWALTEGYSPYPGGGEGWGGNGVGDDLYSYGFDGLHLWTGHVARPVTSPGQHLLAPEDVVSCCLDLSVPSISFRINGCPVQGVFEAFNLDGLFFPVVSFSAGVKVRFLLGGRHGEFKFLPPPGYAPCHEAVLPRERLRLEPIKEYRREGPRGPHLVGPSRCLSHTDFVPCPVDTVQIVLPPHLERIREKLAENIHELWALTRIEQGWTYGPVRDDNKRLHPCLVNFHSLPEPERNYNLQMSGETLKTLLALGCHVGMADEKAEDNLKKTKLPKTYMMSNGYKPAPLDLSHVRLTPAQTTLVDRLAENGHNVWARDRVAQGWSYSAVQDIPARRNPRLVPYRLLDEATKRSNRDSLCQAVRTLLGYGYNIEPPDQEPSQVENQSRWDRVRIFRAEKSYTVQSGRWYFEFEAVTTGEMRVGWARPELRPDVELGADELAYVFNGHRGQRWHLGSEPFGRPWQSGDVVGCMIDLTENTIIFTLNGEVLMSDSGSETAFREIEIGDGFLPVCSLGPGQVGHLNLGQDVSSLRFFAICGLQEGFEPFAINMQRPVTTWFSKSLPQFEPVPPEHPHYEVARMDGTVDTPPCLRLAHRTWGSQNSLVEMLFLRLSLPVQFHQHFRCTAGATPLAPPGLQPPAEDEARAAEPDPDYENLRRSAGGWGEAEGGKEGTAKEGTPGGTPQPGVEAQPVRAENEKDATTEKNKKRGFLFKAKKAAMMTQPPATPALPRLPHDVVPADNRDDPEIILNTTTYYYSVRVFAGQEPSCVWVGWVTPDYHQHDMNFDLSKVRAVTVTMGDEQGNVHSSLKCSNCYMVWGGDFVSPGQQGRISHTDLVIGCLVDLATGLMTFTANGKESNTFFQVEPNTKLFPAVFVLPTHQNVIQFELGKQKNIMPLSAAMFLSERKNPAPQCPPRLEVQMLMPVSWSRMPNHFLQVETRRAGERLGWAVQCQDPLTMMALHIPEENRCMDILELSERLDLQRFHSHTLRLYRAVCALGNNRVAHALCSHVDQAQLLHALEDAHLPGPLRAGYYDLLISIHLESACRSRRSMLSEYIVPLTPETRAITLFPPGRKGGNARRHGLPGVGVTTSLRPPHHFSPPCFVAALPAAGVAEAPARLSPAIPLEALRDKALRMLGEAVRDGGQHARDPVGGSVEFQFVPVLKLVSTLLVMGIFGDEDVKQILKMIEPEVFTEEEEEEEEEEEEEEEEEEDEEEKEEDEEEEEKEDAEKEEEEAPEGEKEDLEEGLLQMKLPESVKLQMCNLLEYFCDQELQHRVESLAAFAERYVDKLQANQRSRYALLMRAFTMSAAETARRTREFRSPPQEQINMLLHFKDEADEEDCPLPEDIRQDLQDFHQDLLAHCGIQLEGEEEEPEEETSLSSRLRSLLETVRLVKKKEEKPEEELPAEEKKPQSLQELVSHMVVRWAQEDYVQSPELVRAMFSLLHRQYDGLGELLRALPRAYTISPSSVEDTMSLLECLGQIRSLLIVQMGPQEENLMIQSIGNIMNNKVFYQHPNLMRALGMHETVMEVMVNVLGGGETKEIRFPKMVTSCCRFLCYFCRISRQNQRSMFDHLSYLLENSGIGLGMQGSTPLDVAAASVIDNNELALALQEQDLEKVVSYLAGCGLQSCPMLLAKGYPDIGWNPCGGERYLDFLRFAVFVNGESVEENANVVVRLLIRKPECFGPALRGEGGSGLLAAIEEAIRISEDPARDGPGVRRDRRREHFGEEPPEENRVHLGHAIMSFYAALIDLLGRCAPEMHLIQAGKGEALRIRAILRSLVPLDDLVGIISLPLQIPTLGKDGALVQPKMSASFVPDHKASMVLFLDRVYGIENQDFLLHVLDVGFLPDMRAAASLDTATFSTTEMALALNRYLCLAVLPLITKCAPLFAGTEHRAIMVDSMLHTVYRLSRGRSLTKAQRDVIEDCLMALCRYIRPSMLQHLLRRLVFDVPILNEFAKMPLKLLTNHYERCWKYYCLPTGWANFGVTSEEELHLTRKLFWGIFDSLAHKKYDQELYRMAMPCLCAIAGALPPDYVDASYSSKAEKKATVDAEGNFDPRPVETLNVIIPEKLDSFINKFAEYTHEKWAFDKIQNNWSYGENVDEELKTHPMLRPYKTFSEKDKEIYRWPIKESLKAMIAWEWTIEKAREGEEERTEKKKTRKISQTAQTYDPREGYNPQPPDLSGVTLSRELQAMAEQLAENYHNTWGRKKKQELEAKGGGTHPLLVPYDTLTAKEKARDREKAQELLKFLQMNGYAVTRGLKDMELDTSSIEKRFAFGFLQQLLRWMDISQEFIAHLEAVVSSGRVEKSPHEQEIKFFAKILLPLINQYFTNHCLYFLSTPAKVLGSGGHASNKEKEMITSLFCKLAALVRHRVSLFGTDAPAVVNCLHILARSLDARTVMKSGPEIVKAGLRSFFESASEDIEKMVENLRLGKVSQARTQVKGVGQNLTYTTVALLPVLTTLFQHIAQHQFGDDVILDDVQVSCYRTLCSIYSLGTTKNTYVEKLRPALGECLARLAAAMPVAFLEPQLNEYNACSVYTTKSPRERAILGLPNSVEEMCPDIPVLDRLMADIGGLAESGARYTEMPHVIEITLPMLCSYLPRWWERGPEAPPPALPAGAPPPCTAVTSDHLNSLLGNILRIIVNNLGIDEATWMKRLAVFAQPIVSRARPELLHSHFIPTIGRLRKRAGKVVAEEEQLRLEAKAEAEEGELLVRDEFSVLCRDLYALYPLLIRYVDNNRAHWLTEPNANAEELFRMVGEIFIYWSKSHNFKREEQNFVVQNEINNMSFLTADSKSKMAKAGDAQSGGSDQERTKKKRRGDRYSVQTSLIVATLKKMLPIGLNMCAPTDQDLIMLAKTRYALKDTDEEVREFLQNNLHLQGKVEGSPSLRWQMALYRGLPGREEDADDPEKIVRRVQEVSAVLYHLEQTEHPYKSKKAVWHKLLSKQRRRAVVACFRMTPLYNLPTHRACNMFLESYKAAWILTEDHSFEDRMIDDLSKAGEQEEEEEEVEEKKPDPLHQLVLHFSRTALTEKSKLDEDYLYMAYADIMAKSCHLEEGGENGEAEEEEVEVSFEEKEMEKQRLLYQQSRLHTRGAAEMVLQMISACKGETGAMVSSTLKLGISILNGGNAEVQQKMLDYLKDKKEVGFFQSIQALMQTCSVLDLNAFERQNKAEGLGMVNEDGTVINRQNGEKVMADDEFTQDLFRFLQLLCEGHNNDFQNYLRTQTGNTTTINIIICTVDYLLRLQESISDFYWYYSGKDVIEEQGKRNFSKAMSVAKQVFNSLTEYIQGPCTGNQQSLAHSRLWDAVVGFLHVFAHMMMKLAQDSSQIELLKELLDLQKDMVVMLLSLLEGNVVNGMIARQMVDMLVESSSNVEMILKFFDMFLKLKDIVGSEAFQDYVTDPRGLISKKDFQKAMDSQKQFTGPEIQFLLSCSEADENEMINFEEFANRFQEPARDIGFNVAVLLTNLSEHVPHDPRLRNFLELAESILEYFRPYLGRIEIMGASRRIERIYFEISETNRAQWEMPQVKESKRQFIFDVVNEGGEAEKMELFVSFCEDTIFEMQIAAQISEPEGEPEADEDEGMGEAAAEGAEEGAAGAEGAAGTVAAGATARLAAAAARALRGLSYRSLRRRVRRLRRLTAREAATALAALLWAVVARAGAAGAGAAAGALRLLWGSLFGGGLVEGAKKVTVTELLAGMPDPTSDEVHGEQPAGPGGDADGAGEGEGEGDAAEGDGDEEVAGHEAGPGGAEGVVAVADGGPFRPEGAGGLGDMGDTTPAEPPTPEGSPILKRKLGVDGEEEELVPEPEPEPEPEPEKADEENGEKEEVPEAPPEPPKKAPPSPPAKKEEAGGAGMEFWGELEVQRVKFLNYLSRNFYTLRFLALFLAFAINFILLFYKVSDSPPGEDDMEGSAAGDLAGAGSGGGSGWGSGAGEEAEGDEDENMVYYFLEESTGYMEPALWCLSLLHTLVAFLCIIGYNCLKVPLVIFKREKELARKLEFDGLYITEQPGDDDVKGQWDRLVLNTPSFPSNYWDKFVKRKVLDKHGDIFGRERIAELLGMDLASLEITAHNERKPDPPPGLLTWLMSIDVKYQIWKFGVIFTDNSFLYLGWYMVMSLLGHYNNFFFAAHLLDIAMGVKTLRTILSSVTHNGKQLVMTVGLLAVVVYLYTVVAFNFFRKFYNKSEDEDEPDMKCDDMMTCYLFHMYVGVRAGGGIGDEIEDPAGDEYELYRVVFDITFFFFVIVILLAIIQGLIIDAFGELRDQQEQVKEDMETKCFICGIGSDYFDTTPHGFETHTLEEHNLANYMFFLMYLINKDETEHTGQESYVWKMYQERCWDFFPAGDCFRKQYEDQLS
Description: [3H]Ryanodine competition binding to rabbit skeletal muscle triads. As for the experimental part:
Rabbit skeletal muscle triads were prepared as previously described (Sharp et al., J. Biol. Chem. 262: 12309-12315 (1987)). […]

In assay [3] the target is T2, brain ryanodine receptor (brain membranes) (Oryctolagus cuniculus, UniProt P30957).
T2 construct: Crude rabbit brain membranes were purified as previously described; from tissue; host or cells: crude rabbit brain membranes (microsomes)
In words: [3H]Ryanodine competition binding to brain membranes. Also noted: species or system rabbit. The source says:
(§1) Canine cardiac junctional SR vesicles were isolated as described previously (Witcher et al., J. Biol. Chem. 266, 1114-11152 (1991)). Crude rabbit brain membranes were purified as previously described (Witcher et al., J. Biol. Chem. 267, 4963-4967 (1992)).

Assay [4] addresses T3, cardiac ryanodine receptor (cardiac membranes) (Canis lupus familiaris, UniProt A0A8I3MT21).
T3 construct: Canine cardiac junctional SR vesicles were isolated as described previously; from tissue; host or cells: canine cardiac junctional SR vesicles / cardiac microsomes
In words: [3H]Ryanodine competition binding to cardiac membranes. On the set-up: species or system canine.
Description: as §1

The target in assay [5] is T1, skeletal muscle ryanodine receptor. In words: Photoaffinity labeling of skeletal muscle triads with [3H]ABRy. The format is binding, rabbit. As for the experimental part:
Since [^3 H]ABRy contains a photoactivatable azido group, this compound was used to covalently label skeletal muscle triads following equilibrium binding. […] The membranes were then pelleted at 400,000×g for 15 min and resuspended in 1 ml of the binding buffer with 5 mM glutathione. The samples were placed in a plastic petri dish at 4° C. and were exposed to UV light (365 nm) at a distance of 1 cm for 45 min. The membranes were then centrifuged in a microfuge at maximum speed for 15 min. at 4° C. The pellets were resuspended in Laemmli sample buffer.
The proteins were then analyzed by SDS-PAGE (3-12% gradient gels) using the buffer system of Laemmli (Nature 227, 680-685 (1970)). Gels were stained with Coomassie blue or transferred to nitrocellulose for immunoblot analysis as previously described (Witcher et al., Science 261, 486-489 (1993)). […] Gels used for fluorography were first stained with Coomassie blue, destained, soaked in Enlightning (DuPont), and dried under vacuum. The dried gels were then exposed to Kodak XAR-5 film at -80° C. The fluorograms were also analyzed densitometrically using a Molecular Dynamics Model 300A scanning densitometer.

The mark [6] stands for this setting: 1 nM [3H]ryanodine, 1:8,000 dilution of anti-ryanodine antibody, read-out: Inhibition of [^3 H] ryanodine-antibody binding, IC50.
Setting [7] is: from FIG. 5, unit inferred, read-out: IC50 for binding to anti-ryanodine antibodies.
Where [8] appears, read: IC50 for binding to the ryanodine receptor, rabbit skeletal membranes, from FIG. 5, unit inferred.

Read-outs that look alike come from different tables or passages of the source.

For the compound `CC(C)C1(O)C(OC(=O)c2ccc[nH]2)C2(O)C3(C)CC4(O)OC5(C(O)C(CSCCCCO)CCC35O)C2(O)C41C` (centres unmarked) [Compound 4, 21-(4-Hydroxybutylmercapto)-ryanodine], the IC50 (as a rule, the concentration needed to halve the response being measured) in assay [1] (setting [6]) is 25 nM; in assay [1] (setting [7]), below 1000 nM; in assay [2] (setting [8]), below 1000 nM. Besides, in assay [1], the “binds times less tightly than ryanodine (antibody)” value is “about 10 times”.

For `CC(C)C1(O)C(OC(=O)c2ccc[nH]2)C2(O)C3(C)CC4(O)OC5(C(O)C(CSCCCCOC(=O)c6ccc(N=[N+]=[N-])cc6)CCC35O)C2(O)C41C` (centres unmarked) [Compound 6], the “binding to anti-ryanodine antibodies compared with ryanodine (words)” value (“binding … compared with ryanodine (words)” below) in assay [1] is “lowest affinity”. The IC50 in assay [1] (setting [6]) is 198 nM; in assay [1] (setting [7]) it was above 100 nM; in assay [2] (setting [8]), above 100 nM. Further, in assay [1], the “binds times less tightly than ryanodine (antibody)” value is listed as around 100 times. Also, in assay [2], the “binding to ryanodine receptor / skeletal membranes compared with ryanodine” value was “lowest affinity”.

As for `CC(C)C1(O)C(OC(=O)c2ccc[nH]2)C2(O)C3(C)CC4(O)OC5(C(O)C(CSCCOC(=O)C(=[N+]=[N-])C(F)(F)F)CCC35O)C2(O)C41C` (centres unmarked) [Compound 7, 21-(2-[3,3,3-Trifluoro-2-diazopropionyloxy]-ethylmercapto)-ryanodine], in assay [1], the “binding … compared with ryanodine (words)” value is listed as “little effect on the IC50”. In addition, the IC50 in assay [1] (setting [6]) is 4 nM; in assay [1] (setting [7]) it was below 1000 nM; in assay [2] (setting [8]), below 1000 nM.

Regarding `CC1CCC2(O)C3(C)CC4(O)OC2(C1OC(=O)CCNC(=O)c1ccc(N=[N+]=[N-])cc1)C1(O)C3(O)C(OC(=O)c2ccc[nH]2)C(O)(C(C)C)C41C` (centres unmarked) [Compound 10, 10-O-(3-[4-Azidobenzamido]-propionyl)-ryanodine], the IC50 in assay [3] is 25 nM; in assay [4] it was 89 nM; in assay [1] (setting [6]) it was 3.2 nM; in assay [1] (setting [7]), below 100 nM; in assay [2] (setting [8]) it was below 100 nM; in assay [2] (half-maximal inhibition of [3H]ryanodine binding to triads, skeletal muscle triads, 1 nM [3H]ryanodine, 1 hr at 37° C.), around 37 nM. Moreover, in assay [5], the “proteins bound (specificity, words)” value is given as “only is capable of binding to the 565 kDa ryanodine receptor/Ca^2+ release channel”. Besides, the entries for the “binding … compared with ryanodine (words)” value in assay [1] and in assay [1] (listed as compound 10) were “very nearly matched the affinity of native ryanodine” and “IC50 values similar to ryanodine”, respectively. Besides, the “binding to ryanodine receptor / skeletal membranes compared with ryanodine” value in assay [2] is given as “very nearly matched the affinity of native ryanodine”.

For the compound `CC1CCC2(O)C3(C)CC4(O)OC2(C1OC(=O)CCNC(=O)c1cc(N=[N+]=[N-])ccc1[N+](=O)[O-])C1(O)C3(O)C(OC(=O)c2ccc[nH]2)C(O)(C(C)C)C41C` (centres unmarked) [Compound 11, 10-O-(3-[2-Nitro-5-azidobenzamido]-propionyl)-ryanodine], the “binding … compared with ryanodine (words)” value in assay [1] was “very nearly matched the affinity of native ryanodine”; in assay [1] (listed as compound 11), “IC50 values similar to ryanodine”. The IC50 in assay [1] (setting [6]) is 3.2 nM; in assay [1] (setting [7]) it was below 100 nM; in assay [2] (setting [8]), below 100 nM. In assay [2], the “binding to ryanodine receptor / skeletal membranes compared with ryanodine” value is listed as “very nearly matched the affinity of native ryanodine”.

For `CC1CCC2(O)C3(C)CC4(O)OC2(C1OC(=O)CCNC(=O)c1ccc(C(=O)c2ccccc2)cc1)C1(O)C3(O)C(OC(=O)c2ccc[nH]2)C(O)(C(C)C)C41C` (centres unmarked) [Compound 12, 10-O-(3-[4-benzoylbenzamido]-propionyl)-ryanodine], the figures for the “binding … compared with ryanodine (words)” value in assay [1] and in assay [1] (listed as compound 12) were “very nearly matched the affinity of native ryanodine” and “IC50 values similar to ryanodine”, respectively. Also, the IC50 in assay [1] (setting [6]) is 6 nM; in assay [1] (setting [7]) it was below 100 nM; in assay [2] (setting [8]), below 100 nM. In addition, in assay [2], the “binding to ryanodine receptor / skeletal membranes compared with ryanodine” value is “very nearly matched the affinity of native ryanodine”.

For `CC1CCC2(O)C3(C)CC4(O)OC2(C1O)C1(O)C3(O)C(OC(=O)c2ccc[nH]2)C(O)(C(C)C)C41C` (centres unmarked) [Ryanodine, reference compound], the “binding … compared with ryanodine (words)” value in assay [1] was “highest affinity”. In addition, the IC50 in assay [1] (setting [6]) was 1.6 nM; in assay [1] (setting [7]), below 10 nM. Moreover, the “binding to ryanodine receptor / skeletal membranes compared with ryanodine” value in assay [2] is listed as “highest affinity”.

Turning to `CC1CCC2(O)C3(C)CC4(O)OC2(C1O)C1(O)C3(O)C(OC(=O)c2ccc[nH]2)C(O)(C(C)C)C41C` (centres unmarked) [[^3 H]ryanodine, reference compound], in assay [1] (method of Muller, read-out: average antibody apparent dissociation constant (Kd) for the [3H]ryanodine-antibody complex), the Kd was found to be 1 nM.
